Data on seven molecules can be found in patent US8450479B2, “3-substituted-4-oxo-3,4-dihydro-imidazo[5,1-d][1,2,3,5-tetrazine-8-carboxylic acid amides and their use” (Pharminox Limited, priority 2007, dated 2013).

Where “and” joins values, the source holds several entries; their conditions need not be identical. Identical values can stand only once. Like-named read-outs stand apart in the source and are kept apart here. A value given as a limit tells only on which side of the number the result lay.

As a reminder, the GI50 is the concentration that inhibits growth by half.

Format in all cases: cell-based
In experiment [1] the test system is Glioma SNB19M (MGMT+). The experiment is described as follows: MTT assay for 7-day toxicity assay. The following applies: Glioma SNB19M (MGMT+), read-out: GI50. The method in brief:
(§1)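 MGMT-transfected or vector-control glioma cells were seeded at 650 cells/well, attached overnight, and exposed for 7 days at 37 °C to compound at final 0.5–1000 μM. Viability was read by MTT (0.4 mg/mL, 4 h) formazan absorbance, with a day-0 plate included.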
Background: Tetrazolium assays rely on reduction of a dye to a coloured formazan, in cell work by metabolically active cells.

The test system of experiment [2] is Glioma SNB19V (MGMT−). Description: MTT assay for 7-day toxicity assay. The following applies: Glioma SNB19V (MGMT−), read-out: GI50. The method in brief:
as §1

The subject of experiment [3] is Glioma U373M (MGMT+). Description: MTT assay for 7-day toxicity assay. The note with it: Glioma U373M (MGMT+), 7-day MTT, single determinations, read-out: GI50. Summed up: as §1
Experiment [4] has as its system Glioma U373V (MGMT low). The experiment is described as follows: MTT assay for 7-day toxicity assay. The following applies: Glioma U373V (MGMT low), 7-day MTT, single determinations, read-out: GI50. The method in brief: as §1
Experiment [5] relates to glioma MGMT− and MGMT+ cell lines. Description: MTT assay, glioma lines as a whole. The following applies: for activity in words: glioma MGMT− and MGMT+ cell lines. The text has this: (§2) This assay was first described in Mosmann, T., 1983, “Rapid colorimetric assay for cellular growth and survival: Application to proliferation and cytotoxicity assays”, Journal of Immunological Methods, Vol. 65, Nos. 1-2, pp. 55-63.
(§3) Glioma cell lines, SNB19 and U373, both MGMT transfected (i.e., SNB19M and U373M) and vector controls (i.e., SNB19V and U373V); colorectal carcinoma cell lines, HCT116, HT29, and DLD1; melanoma cell line, SKMEL-28; breast cell line, MCF-7; and normal human fetal lung fibroblast cell line, MRC-5; were harvested at 60-80% confluence—during the logarithmic phase of growth.
(§4) Following harvesting, cells in suspension were gently syringed through a 23 gauge needle to obtain a near-single cell suspension. The desired cell seeding densities were used and added into 96-well plates in 180 μL culture medium if only one test compound was to be added, or 160 μL if two test compounds were to be added in combination, which were allowed to attach at 37° C. (5% CO2) overnight. For the 7 day assay, the cell seeding density for different cell lines was as follows: SNB19V, SNB19M: 650 cells/well; U373V, U373M: 650 cells/well; SNB19VR, U373VR: 650 cells/well; HCT116, DLD-1, SKMEL-28, MRC-5, MCF-7: 400 cells/well.
(§5) The two peripheral lanes were used as blank wells (cell free) and filled with 200 μL of medium in order to minimise medium evaporation from the plate. A separate time zero (T0) plate was set up alongside other plates. Serial dilutions in tissue culture medium of a 100 mM stock of test compound in DMSO were prepared immediately before each assay to ten times the final concentrations required, and then 20 μL was added to each well (200 μL total media per well) to achieve final concentrations of 0.5 μM, 1 μM, 5 μM, 10 μM, 50 μM, 100 μM, 500 μM, and 1000 μM. A minimum of four wells received the same test compound concentration. To control wells, including those in the T0 plate, 20 μL of medium was added. Previous assays had been carried out to verify that cell viability was not affected by the amount of DMSO added into the test compound-treated wells. A separate plate treated in the same way, but free of test compound, was used as a measure of cell viability at the time of drug addition (day 0).
(§6) After incubation at 37° C., 5% CO2 for 7 days (or immediately for the day 0 plate), cell viability was quantified using the MTT assay. 50 μL of sterile filtered MIT (3-(4,5-dimethylthiazol-2-yl)-2,5-diphenyltetrazolium bromide) (2 mg/mL in phosphate buffered saline) were added to each well (final concentration 0.4 mg/mL) and the plates were re-incubated for 4 hours to allow metabolic conversion of MTT by dehydrogenases in viable cells to insoluble formazan crystals. The medium and any unconverted MTT was aspirated, 150 μL of DMSO was added to each well, and the plates were shaken on a plate shaker (Stuart Scientific 503) to ensure complete formazan solubilisation.
(§7) The intensity of absorbance is directly proportional to cell viability. A linear relationship exists between cell number and the amount of formazan and so the mean absorbance determined for each well of the same concentration can be used as a quantitative measure of viable cells compared to the controls. A graph of absorbance against drug concentration was plotted and the test compound concentration (GI50) causing 50% inhibition of control cell growth (absorbance increase from day 0) was calculated by interpolation.

For experiment [6], the system named is range of other cell lines (e.g., colon, melanoma). The experiment is described as follows: MTT assay, other cell lines. The following applies: other lines (e.g., colon, melanoma).
Source text: as §2, §3, §4, §5, §6, §7

The test system of experiment [7] is Glioma SNB19VR (MGMT−) (TMZ resistant). The experiment is described as follows: MTT assay for 7-day toxicity assay. The following applies: 168 h, Glioma SNB19VR (MGMT−, TMZ resistant); 7-day MTT; single determinations; read-out: GI50. How it is done: (§8) The cell culture techniques were carried out in a Class II microbiological safety cabinet which was swabbed with 70% IMS in distilled water before each use. Glioma cells were routinely cultured in Costar tissue culture flasks in RPMI 1640 liquid medium (containing 0.3 g/L L-glutamine and 2 g/L sodium bicarbonate) supplemented with 10% heat inactivated FBS (55-59° C.) for 1 hour to denature complement proteins which would otherwise evoke a cellular immune response resulting in cell lysis, 1% non-essential amino acids, 50 μg/mL gentamicin and 400 μg/mL G418 (vector selected reagent). Colorectal and melanoma cells were maintained in RPMI 1640 supplemented with 10% FBS. MRC-5 cells were cultured in EMEM. Cells were grown in a humidified incubator containing 5% CO2 at 37° C. Cells were sub-cultured when growth exceeded approximately 80% confluence, normally twice weekly. The medium was aspirated from the flask and approximately 0.8 mL trypsin-EDTA 1× solution added. The cells were re-incubated at 37° C. until they visibly detached from the flask. The cell suspension was then re-suspended in 5 mL medium and 0.5-1 mL of the cell suspension was transferred to a new flask (25 cm^2) with 7 mL culture medium. The cells were further incubated at 37° C. incubator. Cells were disposed after passage nearly 30 times in order to minimize phenotypic drift. New batches of cells were taken from liquid nitrogen storage by thawing rapidly (37° C. water bath) and re-suspension in a 25 cm^2 flask with 10 mL of culture medium. Two passages were allowed to resume normal growth. For long-term maintenance, viable cells at 60-80% confluence were detached by minimum amount of trypsin/EDTA and re-suspended in sterile filtered freezing medium (95% FBS, 5% DMSO), transferred to sterile cryogenic vials, and frozen overnight at −20° C. followed by −80° C. for 1-2 days and stored in liquid nitrogen for long term storage.
(§9) Most test compounds, including temozolomide, were prepared as stock solution (100 mM) in DMSO and stored at −20° C. for not more than 6 months.
as §2, §3, §4
(§10) The two peripheral lanes were used as blank wells (cell free) and filled with 200 μL of medium in order to minimise medium evaporation from the plate. A separate time zero (T0) plate was set up alongside other plates. Serial dilutions in tissue culture medium of a 100 mM stock of test compound in DMSO were prepared immediately before each assay to ten times the final concentrations required, and then 20 μL was added to each well (200 μL total media per well) to achieve final concentrations of 0.5 μM, 1 μM, 5 μM, 10 μM, 50 μM, 100 μM, 500 μM, and 1000 μM. A minimum of four wells received the same test compound concentration. […]

Experiment [8] concerns Glioma U373VR (MGMT low) (TMZ resistant). Description: MTT assay for 7-day toxicity assay. The following applies: 168 h, Glioma U373VR (MGMT low, TMZ resistant); 7-day MTT; single determinations; read-out: GI50. How it is done: as §8, §9, §2, §3, §4, §10
Experiment [9] relates to Normal Human Fetal Lung Fibroblast MRC-5. Description: MTT assay for 7-day toxicity assay. The following applies: Homo sapiens, MRC5, 168 h, Normal Human Fetal Lung Fibroblast MRC-5; 7-day MTT; single determinations; read-out: GI50. The procedure:
as §8, §9, §2, §3, §4, §10

The subject of experiment [10] is Breast MCF-7 (MMR proficient). Description: MTT assay for 7-day toxicity assay. The note with it: Homo sapiens, MCF7, 168 h; Breast MCF-7 (MMR proficient); 7-day MTT; single determinations; read-out: GI50. How it is done:
as §8, §9, §2, §3, §4, §10

The subject of experiment [11] is Colon HCT116 (MMR mutated). The experiment is described as follows: MTT assay for 7-day toxicity assay. The note with it: Colon HCT116 (MMR mutated), 7-day MTT, single determinations, read-out: GI50. The procedure:
as §8, §9, §2, §3, §4, §10

Experiment [12] deals with Colon HT29 (MMR proficient). The experiment is described as follows: MTT assay for 7-day toxicity assay. The note with it: Homo sapiens, HT-29, 168 h, Colon HT29 (MMR proficient); 7-day MTT; single determinations; read-out: GI50. How it is done: as §8, §9, §2, §3, §4, §10
Experiment [13] relates to Melanoma SKMEL-28 (MMR proficient). Description: MTT assay for 7-day toxicity assay. The note with it: Homo sapiens, SK-MEL-28, 168 h, Melanoma SKMEL-28 (MMR proficient); 7-day MTT; single determinations; read-out: GI50. The procedure:
as §8, §9, §2, §3, §4, §10

[14] abbreviates: 168 h, 7-day MTT, single determinations.
Where [15] appears, read: 7-day MTT, single determinations.

With `NC(=O)Cn1nnc2c(C(N)=O)ncn2c1=O` [JJ-001, 2-(8-Carbamoyl-oxoimidazo[5,1-d][1,2,3,5]tetrazin-3(4H)-yl)ethanamide], the GI50 in [1] (setting [14]) was found to be 107 µM; in experiment [1] (setting [15]), 83.2 µM; in [2] (setting [14]), 37.5 µM; in experiment [2] (setting [15]), 38.5 µM; in experiment [3] (168 h) it was 86.7 µM; in [3], 58 µM. Moreover, the GI50 in experiment [4] (168 h) is 56.2 µM; in experiment [4], 74.6 µM. Further, in [5], the activity in words entry is “good activity”.
In the case of `CS(=O)(=O)Cn1nnc2c(C(N)=O)ncn2c1=O` [UU-002, 3-Methanesulfonylmethyl-4-oxo-3,4-dihydro-imidazo[5,1-d][1,2,3,5]tetrazine-8-carboxylic acid amide], the GI50 in experiment [1] is 14.5 µM and 13.7 µM and 26.6 µM. The activity in words entry in experiment [6] and in experiment [5] was “surprising efficacy” in each case.
Regarding `CS(=O)(=O)CCn1nnc2c(C(N)=O)ncn2c1=O` [UU-001, 3-(2-Methanesulfonyl-ethyl)-4-oxo-3,4-dihydro-imidazo[5,1-d][1,2,3,5]tetrazine-8-carboxylic acid amide], in experiment [2], the GI50 is 92.4 µM and 154 µM. Besides, the activity in words result in [6] and in experiment [5] was “surprising efficacy” in each case.
`CC[C@@H](c1ccccc1)n1nnc2c(C(N)=O)ncn2c1=O` [BB-004, (S)-3-(-1-Phenylpropyl)-8-carbamoylimidazotetrazin-4-one]: the GI50 was 48.4 µM in experiment [1] (setting [14]); 60 µM in experiment [1] (setting [15]); 52.4 µM in experiment [2] (setting [14]); 65.8 µM in [2] (setting [15]); 63.1 µM in experiment [3] (168 h); 99.4 µM in experiment [3]. For the same molecule, the GI50 in experiment [4] (168 h) stood at 84.3 µM; in experiment [4], 72.8 µM; in [7], 29.1 µM; in experiment [8], 35.8 µM; in experiment [9], 189 µM.
For `COC(=O)Cn1nnc2c(C(N)=O)ncn2c1=O` [LL-003, Methyl 2-(8-carbamoyl-4-oxoimidazo[5,1-d][1,2,3,5]tetrazin-3(4H)-yl)acetate], the 50% growth inhibitory concentration (GI50) came to 34.8 µM in experiment [1] (setting [14]); 33.5 µM in [1] (setting [15]); 21.3 µM in experiment [2] (setting [14]); 29.7 µM in experiment [2] (setting [15]); 25.4 µM in experiment [3] (168 h); 33.7 µM in experiment [3]. The 50% growth inhibitory concentration (GI50) stood at 9.6 µM in experiment [4] (168 h) and 11.6 µM in experiment [4]. For the same molecule, the activity in words entry in [5] was “surprising efficacy”.
Turning to `CCOC(=O)CCn1nnc2c(C(N)=O)ncn2c1=O` [LL-002, Ethyl 3-(8-carbamoyl-oxoimidazo[5,1-d][1,2,3,5]tetrazin-3(4H)-yl)propanoate], the GI50 in [1] (setting [14]) turned out to be 248 µM; in [1] (setting [15]), 261 µM; in experiment [2] (setting [14]), 447 µM; in [2] (setting [15]) it was 288 µM; in [3] (168 h), 156 µM; in experiment [3], 131 µM. Further, the “fold less active than the acetic acid ester derivatives LL-003 and PX-016” value in [5] (Table 10, glioma cell lines) is reported as more than 10 fold.
As to `COc1cccc(Cn2nnc3c(C(N)=O)ncn3c2=O)c1` [AA-003, 3-(3-Methoxybenzyl)-4-oxo-3,4-dihydroimidazo[5,1-d][1,2,3, 5]tetrazine-8-carboxamide], the concentration for 50% growth inhibition (GI50) in experiment [10] is 316 µM; in experiment [11], 280 µM; in experiment [11] (Homo sapiens, HCT-116, 168 h), 309 µM; in experiment [12] it was 345 µM; in experiment [13], 422 µM.
